Experimental data reported in US11124494B2, “Aryl heterocyclic piperidinone formyl peptide 2 receptor and formyl peptide 1 receptor agonists” (Bristol-Myers Squibb Company, priority 2017, dated 2021).

Target: human FPR2 receptors (Homo sapiens (Human), UniProt P25090)
Experiment: FPR2 cyclic adenosine monophosphate (cAMP) assay
Type: cell-based
Details: hFPR2 Assay, CHO cells overexpressing human FPR2; potency bins; read-out: hFPR2 agonist activity EC50 values
Procedure: FPR2 and FPR1 Cyclic Adenosine Monophosphate (cAMP) Assays. A mixture of forskolin (5 μM final for FPR2 or 10 μM final for FPR1) and IBMX (200 μM final) were added to 384-well Proxiplates (Perkin-Elmer) pre-dotted with test compounds in DMSO (1% final) at final concentrations in the range of 1.7 nM to 100 μM. Chinese Hamster Ovary cells (CHO) overexpressing human FPR1 or human FPR2 receptors were cultured in F-12 (Ham's) medium supplemented with 10% qualified FBS, 250 μg/ml zeocin and 300 μg/ml hygromycin (Life Technologies). Reactions were initiated by adding 2,000 human FPR2 cells per well or 4,000 human FPR1 cells per well in Dulbecco's PBS (with calcium and magnesium) (Life Technologies) supplemented with 0.1% BSA (Perkin-Elmer). The reaction mixtures were incubated for 30 min at room temperature. The level of intracellular cAMP was determined using the HTRF HiRange cAMP assay reagent kit (Cisbio) according to manufacturer's instruction. Solutions of cryptate conjugated anti-cAMP and d2 flurorophore-labelled cAMP were made in a supplied lysis buffer separately. Upon completion of the reaction, the cells were lysed with equal volume of the d2-cAMP solution and anti-cAMP solution. After a 1-h room temperature incubation, time-resolved fluorescence intensity was measured using the Envision (Perkin-Elmer) at 400 nm excitation and dual emission at 590 nm and 665 nm. A calibration curve was constructed with an external cAMP standard at concentrations ranging from 1 μM to 0.1 pM by plotting the fluorescent intensity ratio from 665 nm emission to the intensity from the 590 nm emission against cAMP concentrations. The potency and activity of a compound to inhibit cAMP production was then determined by fitting to a 4-parametric logistic equation from a plot of cAMP level versus compound concentrations.

Sequence of human FPR2 receptors (P25090 whole entry): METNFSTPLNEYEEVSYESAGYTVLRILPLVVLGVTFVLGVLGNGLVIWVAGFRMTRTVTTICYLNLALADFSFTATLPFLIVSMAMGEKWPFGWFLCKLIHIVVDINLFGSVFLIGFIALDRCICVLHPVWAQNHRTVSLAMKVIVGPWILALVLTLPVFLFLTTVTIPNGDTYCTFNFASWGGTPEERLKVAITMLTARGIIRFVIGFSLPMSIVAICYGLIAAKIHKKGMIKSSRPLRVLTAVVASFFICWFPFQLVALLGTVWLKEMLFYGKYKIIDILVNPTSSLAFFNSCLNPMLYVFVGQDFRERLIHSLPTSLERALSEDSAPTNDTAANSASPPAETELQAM

| Compound | EC50 [nM] |
| --- | --- |
| COc1cnc(NC(=O)N[C@H]2CCCN(c3ccc(C4(CNS(C)(=O)=O)CCC4)cc3)C2=O)cn1 [Example 10] | 10 to 100 |
| CS(=O)(=O)NCC1(c2ccc(N3CCC[C@@H](NC(=O)Nc4ncc(Cl)cc4Cl)C3=O)cc2)CC1 [Example 35] | 100 to 1250 |
| CS(=O)(=O)NCC1(c2ccc(N3CCC[C@@H](NC(=O)Nc4ncc(Cl)cc4Cl)C3=O)cc2)CCC1 [Example 13] | 10 to 100 |
| CS(=O)(=O)NCC1(c2ccc(N3CCC[C@H](NC(=O)Nc4ccc(C(F)(F)F)cc4)C3=O)cc2F)CC1 [Example 15] | 10 to 100 |
| O=C(Nc1ncc(Cl)cc1F)N[C@@H]1CCCN(c2ccc(C3(CN4CCOCC4)CC3)cc2)C1=O [Example 54, (R)-1-(5-chloro-3-fluoropyridin-2-yl)-3-(1-(4-(1-(morpholinomethyl)cyclopropyl)phenyl)-2-oxopiperidin-3-yl)urea] | 100 to 1250 |
| CS(=O)(=O)NCC1(c2ccc(N3CCC[C@H](NC(=O)Nc4ccc(C(F)(F)F)nc4)C3=O)cc2)CCC1 [Example 30] | 100 to 1250 |
| O=C(Nc1ccc(C(F)(F)F)nc1)N[C@@H]1CCCN(c2ccc(C3(CN4CCCC4)CCC3)cc2)C1=O [Example 56, (R)-1-(2-oxo-1-(4-(1-(pyrrolidin-1-ylmethyl)cyclobutyl)phenyl)piperidin-3-yl)-3-(6-(trifluoromethyl)pyridin-3-yl)urea] | 100 to 1250 |
| O=C(Nc1ccc(C(F)(F)F)nc1)N[C@@H]1CCCN(c2ccc(C3(CN4CCOCC4)CCCC3)cc2)C1=O [Example 61, (R)-1-(1-(4-(1-(morpholinomethyl)cyclopentyl)phenyl)-2-oxopiperidin-3-yl)-3-(6-(trifluoromethyl)pyridin-3-yl)urea] | 100 to 1250 |
| O=C(Nc1ccc(C(F)(F)F)cn1)N[C@@H]1CCCN(c2ccc(C3(CN4CCCC4)CCC3)cc2)C1=O [Example 59, (R)-1-(2-oxo-1-(4-(1-(pyrrolidin-1-ylmethyl)cyclobutyl)phenyl)piperidin-3-yl)-3-(5-(trifluoromethyl)pyridin-2-yl)urea] | 100 to 1250 |
| O=C(Nc1ccc(C(F)(F)F)cn1)N[C@@H]1CCCN(c2ccc(C3(CN4CCOCC4)CCC3)cc2)C1=O [Example 63, (R)-1-(1-(4-(1-(morpholinomethyl)cyclobutyl)phenyl)-2-oxopiperidin-3-yl)-3-(5-(trifluoromethyl)pyridin-2-yl)urea] | 10 to 100 |
| CS(=O)(=O)NCC1(c2ccc(N3CCC[C@@H](NC(=O)Nc4ccc(OC(F)F)nc4)C3=O)cc2)CC1 [Example 38] | 100 to 1250 |
| CS(=O)(=O)NCC1(c2ccc(N3C[C@H](O)C[C@@H](NC(=O)Nc4ncc(Cl)cc4F)C3=O)cc2)CC1 [Example 70] | 10 to 100 |
| CN(C)CC1(c2ccc(N3CCC[C@@H](NC(=O)Nc4ccc(C(F)(F)F)nc4)C3=O)cc2)CC1 [Example 67, (R)-1-(1-(4-(1-((dimethylamino)methyl)cyclopropyl)phenyl)-2-oxopiperidin-3-yl)-3-(6-(trifluoromethyl)pyridin-3-yl)urea] | 100 to 1250 |
| CS(=O)(=O)NCC1(c2ccc(N3CCC[C@@H](NC(=O)Nc4ncc(C(F)(F)F)cn4)C3=O)cc2)CC1 [Example 16] | 10 to 100 |

Now from value to molecule:

| EC50 [nM] | Compound |
| --- | --- |
| ≤ 10 | CS(=O)(=O)NCC1(c2ccc(N3CCC[C@@H](NC(=O)Nc4ncc(Cl)cc4F)C3=O)cc2F)CC1 [Example 20] |
| ≤ 10 | COc1ccc(NC(=O)N[C@@H]2CCCN(c3ccc(C4(CNS(C)(=O)=O)CC4)cc3)C2=O)nc1 [Example 24] |
| ≤ 10 | CS(=O)(=O)NCC1(c2ccc(N3CCC[C@@H](NC(=O)Nc4ccc(C(F)(F)F)cn4)C3=O)cc2)CC1 [Example 46] |
| ≤ 10 | N#CC1(c2ccc(N3CCC[C@@H](NC(=O)Nc4ccc(C(F)(F)F)cc4)C3=O)cc2)CC1 [Example 49] |
| ≤ 10 | Cc1cnc(NC(=O)N[C@@H]2CCCN(c3ccc(C4(CNS(C)(=O)=O)CCC4)cc3)C2=O)cn1 [Example 8] |
| ≤ 10 | CS(=O)(=O)NCC1(c2ccc(N3CCC[C@@H](NC(=O)Nc4ccc(C(F)(F)F)cn4)C3=O)cc2)CCC1 [Example 28] |
